Measured values taken from publication PMC10622577, “Structural basis for stabilisation of the RAD51 nucleoprotein filament by BRCA2” (Nature Communications, 2023).

Key:
Design in all cases: species or system human
RAD51 D184A NPFs = test: SPR of TR2 binding to RAD51 D184A NPFs; conditions: n = 3
Method: (§1) We investigated further the effect of the acidic patch mutations on TR2 binding using surface plasmon resonance (SPR). We developed an SPR assay whereby increasing amounts of TR2 peptide were added to RAD51 NPFs that had been assembled on biotinylated DNA coupled to a streptavidin chip (Supplementary Fig. 3A, Supplementary Table 1). […] We used the same SPR assay to assess the effect of the mutations on the ability of BRC4 to disrupt an established filament (Supplementary Fig. 4A, Supplementary Table 1).
All SPR experiments were performed using a Biacore T200 instrument and an S-series SA (Streptavidin) sensor chip. A single chip was used to immobilise biotinylated single- and double-stranded DNA in buffer: 25 mM HEPES pH 7.4, 100 mM NaCl, 1 mM EDTA. ssDNA and dsDNA were immobilised in different channels to a signal of 120 RU and 250 RU, respectively. […]
For the BRCA2 TR2 titration series, blank-subtracted sensorgrams were used to extract the maximum response accumulated after each TR2 injection. TR2 response accumulation was corrected to account for differences in RAD51 filament formation between runs, by multiplying the maximum response by a scale factor calculated as the ratio between mean RAD51 filament accumulation on each DNA substrate and the mean RAD51 accumulated for each mutant for each triplicate. […]

RAD51 D184A, D187A NPFs = test: SPR of TR2 binding to RAD51 D184A, D187A NPFs
Method: as §1
All SPR experiments were performed using a Biacore T200 instrument and an S-series SA (Streptavidin) sensor chip. A single chip was used to immobilise biotinylated single- and double-stranded DNA in buffer: 25 mM HEPES pH 7.4, 100 mM NaCl, 1 mM EDTA. ssDNA and dsDNA were immobilised in different channels to a signal of 120 RU and 250 RU, respectively.
All binding experiments were performed in CMA buffer: 25 mM HEPES pH 7.4, 100 mM NaCl, 2 mM DTT, 2 mM ATP, 5 mM CaCl2, 5 mM MgCl2. 1 μM RAD51 (wild-type, D184A or D184A, D187A mutant proteins) was injected for 120 seconds followed by buffer for 120 seconds at a flow rate of 10 μl/min. TR2 or BRC4 peptides were then injected in a concentration titration series of 0.1, 0.25, 0.5, 0.75, 1, 2, 3, 5, 7.5, 10 and 15 μM for 120 seconds at a flow rate of […] followed by a dissociation time of 240 seconds. After each injection of BRCA2 peptide, the sensor chip was regenerated with buffer comprising of CMA buffer with 1 M NaCl for 120 seconds at a flow rate of 100 μl/min. All experiments were performed in triplicate.
For the BRCA2 TR2 titration series, blank-subtracted sensorgrams were used to extract the maximum response accumulated after each TR2 injection. TR2 response accumulation was corrected to account for differences in RAD51 filament formation between runs, by multiplying the maximum response by a scale factor calculated as the ratio between mean RAD51 filament accumulation on each DNA substrate and the mean RAD51 accumulated for each mutant for each triplicate. The first experiment of the triplicate series for binding of TR2 to the D184A, D187A RAD51 NPF on dsDNA was discounted due to a failed peptide injection.
All graph plotting and statistical analysis was performed using Prism 9.3.1 (GraphPad). […] Data for each mutant on each substrate were fitted with a non-linear one-phase exponential decay.
Supplementary table 1. DNA oligos and peptides
Oligos Size (nt) Sequence (5’ – 3’)
D184A […] (forward),
D184A, D187A […] (forward),
EMSA, SPR, CryoEM (micrographs, […]
Supplementary figs. 3, 4 (ssDNA) 60 Biotin-[…]
Supplementary figs. 3, 4 (dsDNA) 60 Biotin-[…],
Panel A (ssDNA) 32 Cy5-[…]
Panel B (dsDNA) 50 […]-Cy3,
Panel B (ssDNA) 60 Biotin-[…]-
Panel B (dsDNA) 60 Biotin,
Panel C (ssDNA) 32 Biotin-[…]-Biotin […]

RAD51 NPFs = test: cryo-electron micrographs, bundling of RAD51 NPFs on uncapped DNA; conditions: 1:0.5 molar ratio of TR2 peptide; uncapped ss- and dsDNA; two independent repeats
Text: To understand the structural basis for the association of the BRCA2 C-terminus with the RAD51 nucleoprotein filament, we sought to determine the structure of a RAD51-DNA-TR2 filament by high-resolution cryo-electron microscopy (cryoEM). […] Individual filaments within a bundle appeared to be in translational register relative to each other as it was possible to obtain well-resolved 2D classes of filament pairs (Supplementary fig. 5A, Supplementary Table 1). Filament aggregation induced by TR2 complicated picking of individual filament particles and prevented structural determination by cryoEM. We therefore sought to develop a method to prepare RAD51 NPFs in the presence of TR2 peptide without causing filament bundling. We reasoned that bundling might be alleviated by capping the DNA substrate with a bulky tag, to prevent filament aggregation by steric interference. We therefore prepared ss- and dsDNA substrates with a biotin tag at either one end or both ends, that could be bound by monomeric streptavidin (mSA) (Supplementary Fig. 5B, Supplementary Table 1).
Fig. 2 BRCA2 TR2 induces bundling of RAD51 nucleoprotein filaments. A Cryo-electron micrographs of RAD51 NPFs formed on ssDNA and dsDNA in the presence of 1:0.5 molar ratio of TR2 peptide. Extensive NPF aggregation into bundles of aligned filaments is clearly visible (examples marked with dashed white boxes). Two independent repeats. […]

Sequence: DDQKNCKKRRALDFLSRLPLPPPVSPICTFVSPAAQKAFQPPRSCGTKY [TR2, BRCA2 TR2 peptide spanning amino acids 3260 to 3308]
- TR2 binding by SPR relative to wild-type (RAD51 D184A NPFs; Biacore T200, streptavidin chip, biotinylated ss- or dsDNA, CMA buffer pH 7.4, 1 μM RAD51, TR2 0.1-15 μM, 120 s): clear reduction in TR2 binding
- impact of mutation on TR2 binding by SPR, ssDNA versus dsDNA (RAD51 D184A NPFs; ssDNA compared with dsDNA): stronger for NPFs formed on ssDNA
- TR2 binding by SPR relative to D184A mutant (RAD51 D184A, D187A NPFs; D187A compared with single D184A, n = 3): weaker binding compared with the single D184A mutant
- TR2 binding by SPR relative to wild-type (RAD51 D184A, D187A NPFs; D187A, Biacore T200, streptavidin chip, biotinylated ss- or dsDNA, CMA buffer pH 7.4, 1 μM RAD51, TR2 0.1-15 μM, 120 s, n = 3 (one dsDNA run discounted, failed injection)): clear reduction in TR2 binding
- residual TR2 binding (RAD51 D184A, D187A NPFs; D187A, SPR Fig. 1E, authors' response to reviewers): retain a degree of binding
- impact of mutation on TR2 binding by SPR, ssDNA versus dsDNA (RAD51 D184A, D187A NPFs; D187A, ssDNA compared with dsDNA, n = 3): stronger for NPFs formed on ssDNA
- bundling of RAD51 NPFs (RAD51 NPFs): extensive bundling of RAD51 NPFs with both ss- and dsDNA
